In patent US12280029B2, “Methods of treatment of inflammation related conditions using pluripotent anti-inflammatory and metabolic modulators” (INSTITUT PASTEUR DE MONTEVIDEO, priority 2016, dated 2025):

Columns and labels:
HFD-induced obese mice = experiment: Insulin resistance in HFD-induced obese mice (glucose tolerance test); assay type: in vivo; details: 100 mg/kg gavage every day during four weeks
Procedure: Mice under RFD for up to 7 months (mean weight around 40 gr.) were treated with SANA (100 mg/kg; gavage) or phosphate buffer (control) every day during four weeks. The glucose tolerance test were run as per well-known standard procedures.

[1] = system: inflammasome in THP-1 cells differentiated into macrophages; experiment: Inflammasome inhibition in THP-1 macrophages (LPS + ATP, IL-1b ELISA); assay type: cell-based, human; details: for inhibition of the inflammasome (IL-1b secretion), applied with the second signal: LPS (250 ng/mL, 3 hs.), then together with ATP (5 mM, 45 minutes), SANA 0.05, 0.125 and 0.25 mM, Salicylic acid 0.25 mM; for inhibition of the inflammasome (IL-1b secretion), applied with the first signal: together with LPS (250 ng/mL, 3 hs.), then ATP (5 mM, 45 minutes), SANA 0.05, 0.125 and 0.25, Salicylic acid 0.2.5 mM
Procedure: In FIGS. 8 and 9 show the inhibition of inflammasome in THP-1 cells differentiated into macrophages (PMA 200 nM, 48 hs.) by SAMA but not by SA when applied together with the first (FIG. 8) or the second (FIG. 9) signal. In FIG. 8 cells were treated with Salicylic acid (0.2.5 mM) or SANA (0.05; 0.125 and 0.25) together with LPS stimulation. The cells were stimulated with LPS (250 ng/mL, 3 hs.) and then with ATP (5 mM, 45 minutes). Supernatant was collected and IL-1b measured by ELISA. Cell viability was assessed by MTT assay. […] In FIG. 9 THP-1 cells were differentiated into macrophages with PMA (200 nM, 48 hs.). Cells were stimulated with LPS (250 ng/mL, 3 hs.) and then with ATP (5 mM, 45 minutes), Together with ATP treatment, cells were then treated with […] (10 uM), Salicylic acid (0.25 mM) or SANA (0.05; 0.125 and 0.25 mM). Supernatant was collected and IL-1b secretion was measured by ELISA. Cell viability was assessed by the MTT assay.

[2] = system: skin allograft, C57BL/6 female mice grafted with skin of C57BL/6 male mice; experiment: Skin allograft rejection in mice; assay type: in vivo; details: from one day before until 15 days after transplantation
Procedure: C57BL/6 female mice were grafted with skin from the tails of C57BL/6 male mice. The skin graft is a small square (1 cm^2) and it was implanted onto the left subscapular region of the female mice. From one day before the transplantation until 15 days after it, the mice were treated daily with SANA. (1.00 mg/kg, by oral gavage; SANA group) or vehicle (Control group). The vehicle used was a solution of Carboxy-Methyl-cellulose 0.5% m/v and Tween 80 0.5% v/v. At the end of the 15th day of administration, allografts were checked every 48/72 hours to assess the condition of the grafted skin. Rejection was diagnosed clinically when the allograft lost more than 50% of its size and/or more than 10% of allograft was necrotic. […] The study followed the protocol described above for FIG. 1, but further included a Salicylate group. C57BL/6 female mice were grafted with skin from the tails of C57BL/6 male mice. The skin graft is a small square (1 cm^2) and it was implanted onto the left subscapular region of the female mice. From one day before the transplantation until 15 days after it, the mice were treated daily with Salicylate (100 mg/kg, by oral gavage; Salicylate group), SANA (100 mg/kg, by oral gavage; SANA group) or vehicle (Control group). The vehicle used was a solution of Carboxy-Methyl-cellulose 0.5% m/v and Tween 80 0.5% v/v. […]

[3] = Adduct formation of SANA with β-mercaptoethanol, followed spectrophotometrically (UV-visible); assay type: physicochemical; details: pH 7.4, BME 1 mM, scans every min up to 15 min
Procedure: (§1) UV-visible spectra was acquired by a Varian Cary 50 Bio. Scans were taken every min up to 15 min.

[4] = system: Nrf2/Keap1-dependent gene expression in Hep G2 cells; experiment: Phase two enzymes Nrf2/Keap1-dependent gene expression (qPCR); assay type: cell-based; details: Hep G2, five hours, SANA 0.1 mM, Salicylic Acid 0.2. and 5 mM
Procedure: FIGS. 6 and 7 show induction of phase two enzymes Nrf2/Keap1-dependent gene expression by SANA but not by SA. Hep G2 cells were treated with SANA (0.1 mM) or Salicylic Acid (0.2. and 5 mM) for five hours. mRNA was extracted from the cells and was measured HO-1, GCLM and NQO1 gene expression by qPCR.

[5] = Adduct formation of SANA with glutathione, followed spectrophotometrically (UV-visible); assay type: physicochemical; details: pH 7.4, GSH 1 mM, scans every min up to 15 min
Procedure: as §1

[6] = system: NF-kB-dependent gene expression in THP-1 cells differentiated into macrophages; experiment: NF-kB-dependent gene expression in human macrophages (qPCR); assay type: cell-based; details: 100 and 200 uM for 2 hours, then LPS (3 hours)
Procedure: THP-1 cells were differentiated into macrophages. Cells were then treated with SANA (100 and 200 uM) or Salicylic acid (SA: 100 and 200 uM) for 2 hours. Cells were then stimulated with LPS (1 mg/mL, 3 hours) mRNA was extracted and IL-6, TNF-a and MCP-1 fold change gene expression over control were quantified by qPCR.

[7] = system: NF-κB/p65 in THP-1 macrophages; experiment: LPS-induced NF-κB/p65 subcellular localization, immunofluorescence and epifluorescence microscopy; assay type: cell-based, human
Description: Nuclear factor kappa B (NF-κB) represents a family of pro-inflammatory transcription factors, present in all eukaryotic cells, which regulate inducible expression of wide ranging genes involved in immune responses and cell-cycle regulation. Activation of NF-κB is accompanied by nuclear translocation of NF-κB. […] Specifically, FIG. 3 illustrates immunofluorescence and epifluorescence microscopy analysis showing the effect of SANA on LPS-induced NF-κB/p65 subcellular localization in THP-1 macrophages.

[8] = Stopped-flow kinetic measurement of the reaction with BME; assay type: physicochemical; details: 25 μM, BME 0.54-2.73 mM, absorbance at 260 nm, 25° C., triplicate, slope of pseudo first order constants vs BME
Procedure: In FIG. 2, it is shown that the reaction between SANA and BME was determined to be a second order rate constant. Stopped-flow kinetic measurements were performed using an Rx 2000 stopped flow analyzer (Applied Photophysics). Mixtures of 1.50 μL […] (25 μM) and solutions of BME at 0.54 mM, 1.09 mM, 1.64 mM, 2.18 mM, and 2.73 mM concentrations.
The reaction was monitored by following the absorbance at 260 nm and plots were fitted to a simple exponential decay function using Originlab software (version 8.0.). The observed pseudo first order constant at each concentration of BME was extracted from the equation and plotted against the concentration of BME. The second rate constant of the reaction is derived from the slope of the curve and was 182±6 M^−1s^−1. All experiments were carried out at 25° C. by triplicate.

GAPDH = GAPDH (Homo sapiens, UniProt P04406); experiment: GAPDH activity; assay type: biochemical
[9] = system: Il-1b secretion into the peritoneum; experiment: LPS-induced Il-1b secretion into the peritoneum in vivo

GAPDH, sequence (P04406 whole entry, species assumed): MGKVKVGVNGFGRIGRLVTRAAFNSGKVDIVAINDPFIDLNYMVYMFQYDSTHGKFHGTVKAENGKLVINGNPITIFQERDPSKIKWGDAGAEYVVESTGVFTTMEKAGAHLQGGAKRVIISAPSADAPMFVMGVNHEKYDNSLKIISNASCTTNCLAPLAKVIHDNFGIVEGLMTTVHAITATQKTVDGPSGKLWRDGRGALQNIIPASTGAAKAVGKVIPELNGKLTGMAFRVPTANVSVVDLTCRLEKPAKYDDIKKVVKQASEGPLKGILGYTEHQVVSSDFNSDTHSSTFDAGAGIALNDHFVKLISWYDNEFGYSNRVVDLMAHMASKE

adduct formation with BME (increase of absorption at 360 nm) [3] | adduct formation with GSH (increase of absorption at 360 nm) [5] | inhibition of GAPDH activity (GAPDH) | SMILES | insulin resistance (glucose tolerance test) (HFD-induced obese mice) | inhibition of the inflammasome (IL-1b secretion), applied with the second signal [1] | inhibition of the inflammasome (IL-1b secretion), applied with the first signal [1] | survival of grafted skin vs control group ([2]; 1.00 mg/kg by oral gavage daily) | skin allograft rejection vs salicylic acid ([2]; 100 mg/kg by oral gavage daily, Salicylate 100 mg/kg) | induction of Nrf2/Keap1-dependent gene expression (HO-1, GCLM and NQO1) [4] | inhibition of NF-kB-dependent gene expression (IL-6, TNF-a and MCP-1 mRNA fold change over control) [6] | LPS-induced NF-κB/p65 nuclear translocation ([7]; 0.1 mM, 2 hs before activation with LPS (1 ug/mL)) | potency relative to salicylic acid on NF-κB/p65 localization ([7]; SANA 0.1 mM vs salicylic acid 1 mM) | second rate constant of the reaction with BME [8] [M⁻¹ s⁻¹] | LPS-induced Il-1b secretion into the peritoneum [9] | LPS-induced NF-κB/p65 subcellular localization, effect compared with SANA 0.1 mM ([7]; 1 mM, LPS (1 ug/mL))
adduct formation | adduct formation | does not inhibit GAPDH activity | O=C(O)c1cc(/C=C/[N+](=O)[O-])ccc1O [SANA, 2-hydroxy-5-(2-nitroethenyl)benzoic acid] | reverses insulin resistance | potent inhibitor of the inflammasome | potent inhibitor of the inflammasome | prolonged survival of grafted skin as compared to a control group | significant reduction in skin allograft rejection compared to salicylic acid | induction | inhibition of NF-kB-dependent gene expression | lack of nuclear translocation of NF-κB | significantly more potent than salicylic acid | 182 ± 6 | decreases | 
 |  |  | O=C(O)c1ccccc1O [salicylic acid, reference compound] |  | cannot inhibit | cannot inhibit |  |  | not by SA | not able to inhibit NF-kB dependent gene expression |  |  |  |  | the same effect
